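Dose response: 5 concentrations. Exposure: 48 h. Format: 96-well plates. Endpoint: linear interpolation; highest concentration if not reached. TGI denotes the concentration required for complete inhibition of growth.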 A value given as a limit tells only on which side of the number the result lay.

A word on the TGI: it is the concentration giving total growth inhibition. High values mean less potent growth arrest, low ones more potent growth arrest.

The first experiment deals with HOP-62 NSCLC. In words: DTP human tumour cell line panel, 48 h.
In the case of `Cc1nc(Cl)c(CBr)c(Cl)n1`, the total growth inhibition concentration (TGI) stood at 4.03 µM.
The same measure, in the same setting: next, `N#CSCc1cccc(Nc2cc(=O)[nH]c(=O)[nH]2)c1`: more than 100 µM; `COc1ccc2c(c1)C(=O)c1ccccc1C2`: more than 100 µM.
Still for that read-out and setting: the same measure for `O=C1C(Cl)N(c2ccccc2)C1c1c[nH]c2ccccc12` (stereo not given): more than 100 µM; for `O=c1nc2c(c(-c3cccc(Cl)c3)[nH]1)COC/C2=C\c1cccc(Cl)c1`: more than 100 µM.
Still for that read-out and setting: the same measure for `CC(C)/C(Cl)=N\OC(=O)NNc1ccccc1`: more than 100 µM; for `Cc1nc2nnc(C)n2c2c1C(=O)Nc1ccccc1N2`: more than 100 µM.
With `CN(O)C(=O)Cc1ccc(OCc2cccc(Cl)c2)cc1`, the concentration for total growth inhibition (TGI) was more than 100 µM.
`O=C(OCc1ccccc1)OOC(=O)OCc1ccccc1` gave a TGI of more than 100 µM.
The same measure, in the same setting: the same measure for `CCN(CCCN(CC)C(=O)N[C@@H](Cc1ccccc1)C(=O)NC)C(=O)N[C@@H](Cc1ccccc1)C(=O)NC`: more than 100 µM; for `C(=Nc1ccc(-c2nc3ccccc3s2)cc1)c1ccco1`: more than 100 µM.
Same read-out and setting: the same measure for `Cc1cc2cccc(Cl)c2nc1C(=O)c1ccccc1`: more than 100 µM; for `COC(=O)C1CC(C=[N+](C)C)=C(SC)N1` (stereo not given): more than 100 µM; for `O=c1c2cc(I)ccc2[nH]c(=S)n1Cc1ccccc1`: 63 µM.
On to `COc1cccc(-c2nc(-c3cnccn3)n(Cc3ccccc3)n2)c1`, for which the TGI was more than 100 µM.
On to `CC(=O)Nc1ccc(Cl)c(Cl)c1`, for which the TGI is more than 100 µM.
Still for that read-out and setting: the same measure for `N#Cc1c(OCCF)c2ccccc2n2c1nc1ccccc12`: more than 100 µM.
In turn, `CC(=O)/C(=C/n1c(=S)sc2ccccc21)C(=O)Nc1ccccc1C` returned a total growth inhibition concentration (TGI) of more than 100 µM.
In the case of `O=C(CCc1ccc(O)cc1)c1c(O)cc(O)cc1OC1OC(CO)C(O)C(O)C1O` (stereo not given), the TGI was more than 100 µM.
Still for that read-out and setting: next, `CC(C)=CC1C(C(=O)O)C1(C)C` (stereo not given): more than 750 µM; `CCOC(=O)C1CC(O)C(=O)N1C` (stereo not given): more than 100 µM; `COc1cccc(C2c3cc4c(cc3OC(N3CCCC3)C2C)OCO4)c1OC` (stereo not given): 26.7 µM.
On the same count and under the same terms, the same measure for `c1ccc(N=c2snc(-c3ccccc3)s2)cc1`: more than 100 µM.
The same measure, in the same setting: next, `N#CC(C#N)=C1CCCS(=O)(=O)c2ccccc21`: more than 100 µM.

The test system of a further experiment is 786-0 renal. The experiment in a line: DTP human tumour cell line panel, 48 h.
Regarding `Cc1oc2nc(N(C)C)n3nnnc3c2c1C`, the TGI was more than 100 µM.
The molecule `Cc1nc(Cl)c(CBr)c(Cl)n1` returned a TGI of 1 µM.
Regarding `N#CSCc1cccc(Nc2cc(=O)[nH]c(=O)[nH]2)c1`, the TGI is more than 100 µM.
On the same count and under the same terms, the same measure for `COc1ccc2c(c1)C(=O)c1ccccc1C2`: more than 100 µM; for `O=c1nc2c(c(-c3cccc(Cl)c3)[nH]1)COC/C2=C\c1cccc(Cl)c1`: more than 100 µM.
The same measure, in the same setting: next, `CC(C)/C(Cl)=N\OC(=O)NNc1ccccc1`: more than 100 µM; `Cc1nc2nnc(C)n2c2c1C(=O)Nc1ccccc1N2`: more than 100 µM; `CN(O)C(=O)Cc1ccc(OCc2cccc(Cl)c2)cc1`: more than 100 µM.
The same measure, in the same setting: next, `CC1=CC(=O)N(n2c(C)n[nH]c2=O)C1=O`: more than 100 µM; `CCN(CCCN(CC)C(=O)N[C@@H](Cc1ccccc1)C(=O)NC)C(=O)N[C@@H](Cc1ccccc1)C(=O)NC`: more than 100 µM.
For the molecule `C(=Nc1ccc(-c2nc3ccccc3s2)cc1)c1ccco1`, the TGI is more than 100 µM.
The same measure, in the same setting: the same measure for `COC(=O)C1CC(C=[N+](C)C)=C(SC)N1` (stereo not given): more than 100 µM; for `O=c1c2cc(I)ccc2[nH]c(=S)n1Cc1ccccc1`: 63 µM.
Turning to `COc1cccc(-c2nc(-c3cnccn3)n(Cc3ccccc3)n2)c1`, the TGI is more than 100 µM.
On the same count and under the same terms, the same measure for `CC(=O)Nc1ccc(Cl)c(Cl)c1`: more than 100 µM; for `CC(=O)/C(=C/n1c(=S)sc2ccccc21)C(=O)Nc1ccccc1C`: more than 100 µM.
Consider `O=C(CCc1ccc(O)cc1)c1c(O)cc(O)cc1OC1OC(CO)C(O)C(O)C1O` (stereo not given), for which the TGI is more than 100 µM.
In turn, `CCOC(=O)C1CC(O)C(=O)N1C` (stereo not given) showed a TGI of more than 100 µM.
On to `COc1cccc(C2c3cc4c(cc3OC(N3CCCC3)C2C)OCO4)c1OC` (stereo not given), for which the TGI was 18.8 µM.
On the same count and under the same terms, next, `c1ccc(N=c2snc(-c3ccccc3)s2)cc1`: more than 100 µM; `N#CC(C#N)=C1CCCS(=O)(=O)c2ccccc21`: more than 100 µM.

A further experiment concerns OVCAR-8 ovarian. The experiment in a line: DTP human tumour cell line panel, 48 h.
For the molecule `Cc1oc2nc(N(C)C)n3nnnc3c2c1C`, the TGI was more than 100 µM.
Same read-out and setting: the same measure for `C[C@@H]1C[C@H](O)[C@]2(O)O[C@@H]3C[C@@]4(C=O)[C@@H](CC=C5[C@@H]4CC[C@]4(C)[C@@H](C6=CC(=O)OC6)CC[C@]54O)C[C@H]3O[C@@H]2O1`: 0.22 µM.
Still for that read-out and setting: the same measure for `Cc1nc(Cl)c(CBr)c(Cl)n1`: 6.47 µM; for `N#CSCc1cccc(Nc2cc(=O)[nH]c(=O)[nH]2)c1`: more than 100 µM; for `COc1ccc2c(c1)C(=O)c1ccccc1C2`: more than 100 µM.
On the same count and under the same terms, next, `O=C1C(Cl)N(c2ccccc2)C1c1c[nH]c2ccccc12` (stereo not given): more than 100 µM.
`O=c1nc2c(c(-c3cccc(Cl)c3)[nH]1)COC/C2=C\c1cccc(Cl)c1` showed a TGI of more than 100 µM.
Molecule `CC(C)/C(Cl)=N\OC(=O)NNc1ccccc1` came in with a TGI of more than 100 µM.
Still for that read-out and setting: next, `Cc1nc2nnc(C)n2c2c1C(=O)Nc1ccccc1N2`: more than 100 µM; `CN(O)C(=O)Cc1ccc(OCc2cccc(Cl)c2)cc1`: more than 100 µM; `CC1=CC(=O)N(n2c(C)n[nH]c2=O)C1=O`: more than 100 µM.
Same read-out and setting: next, `CCN(CCCN(CC)C(=O)N[C@@H](Cc1ccccc1)C(=O)NC)C(=O)N[C@@H](Cc1ccccc1)C(=O)NC`: more than 100 µM; `C(=Nc1ccc(-c2nc3ccccc3s2)cc1)c1ccco1`: more than 100 µM.
Same read-out and setting: the same measure for `Cc1cc2cccc(Cl)c2nc1C(=O)c1ccccc1`: more than 100 µM; for `COC(=O)C1CC(C=[N+](C)C)=C(SC)N1` (stereo not given): more than 100 µM.
For the molecule `O=c1c2cc(I)ccc2[nH]c(=S)n1Cc1ccccc1`, the TGI is more than 100 µM.
On the same count and under the same terms, the same measure for `COc1cccc(-c2nc(-c3cnccn3)n(Cc3ccccc3)n2)c1`: more than 100 µM.
For the molecule `CC(=O)Nc1ccc(Cl)c(Cl)c1`, the TGI is more than 100 µM.
For the molecule `N#Cc1c(OCCF)c2ccccc2n2c1nc1ccccc12`, the TGI was more than 100 µM.
On to `CC(=O)/C(=C/n1c(=S)sc2ccccc21)C(=O)Nc1ccccc1C`, for which the TGI was more than 100 µM.
In turn, `CC(C)=CC1C(C(=O)O)C1(C)C` (stereo not given) had a TGI of more than 750 µM.
Regarding `COc1cccc(C2c3cc4c(cc3OC(N3CCCC3)C2C)OCO4)c1OC` (stereo not given), the concentration for total growth inhibition (TGI) was 39.8 µM.
On the same count and under the same terms, next, `c1ccc(N=c2snc(-c3ccccc3)s2)cc1`: more than 100 µM.
Same read-out and setting: next, `OCc1ccccc1C1CSCSC1`: more than 100 µM.
The same measure, in the same setting: the same measure for `N#CC(C#N)=C1CCCS(=O)(=O)c2ccccc21`: more than 100 µM.

For the origin of these results see PubChem BioAssay (NCI).
